{
  "source": "ChEMBL document CHEMBL1201862",
  "about": "“PubChem BioAssay data set” (2004)",
  "note": "Active and inactive are the calls of the source.",
  "data": [
    {"tested_on": "H9c2", "assay": "cells", "assay_type": "functional, cell-based", "conditions": "Rattus norvegicus, H9c2, Myocardium", "values": [
      {"smiles": "Oc1nc2cccc(F)c2n2cccc12", "IC50": "> 79 µM (inactive)"},
      {"smiles": "COc1ccc(C(=O)COC(=O)C(CCCCN2C(=O)C3C4C=CC(C4)C3C2=O)N2C(=O)C3C4C=CC(C4)C3C2=O)cc1", "note": "(stereo not given)", "IC50": "> 79 µM (inactive)"},
      {"smiles": "CCCCn1nc(NC(=O)c2cccs2)c2cc3ccccc3nc21", "IC50": "> 79 µM (inactive)"},
      {"smiles": "C/C(=N\\NC(=O)c1ccccc1-n1cccc1)c1ccccn1", "IC50": "38.8 µM (inactive)"},
      {"smiles": "COC(=O)/C(=C(O)\\C=C\\c1ccccc1[N+](=O)[O-])c1nc2ccccc2[nH]1", "IC50": "> 79 µM (inactive)"}
    ]},
    {"tested_on": "not listed separately", "assay": "viability of uninfected HEp-2 cells – cell-based, HTS, cytotoxicity control for RSV inhibitor project, dose response (AID 2410)", "assay_type": "functional", "conditions": "human respiratory syncytial virus", "values": [
      {"smiles": "Oc1nc2cccc(F)c2n2cccc12", "CC50": "30 µM (active)"},
      {"smiles": "CCCCn1nc(NC(=O)c2cccs2)c2cc3ccccc3nc21", "CC50": "25.5 µM (active)"}
    ]},
    {"tested_on": "not listed separately", "assay": "HIV-1 AD8 envelope cell-cell fusion blockers – cherry-pick, dose response (AID 652062);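 also: luciferase signal from cell-cell fusion driven by HIV-1 clade B AD8 Env; potency is for inhibitors of fusion seen as a drop in luminescence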", "assay_type": "functional, cell-based", "conditions": "not given", "values": [
      {"smiles": "O=C(c1ccc(Cl)s1)N1CCN(c2nc3ccccc3s2)CC1", "AC50": "11.9 µM (active)"},
      {"smiles": "C[C@H](CO)N1C[C@H](C)[C@H](CN(C)S(=O)(=O)c2cccs2)Oc2ccc(NC(=O)Cc3cn(C)c4ccccc34)cc2CC1=O", "AC50": "12.5 µM (active)"}
    ]},
    {"biological_target": "Induced myeloid leukemia cell differentiation protein Mcl-1 (Homo sapiens, UniProt Q07820)", "sequence (Q07820 whole entry)": "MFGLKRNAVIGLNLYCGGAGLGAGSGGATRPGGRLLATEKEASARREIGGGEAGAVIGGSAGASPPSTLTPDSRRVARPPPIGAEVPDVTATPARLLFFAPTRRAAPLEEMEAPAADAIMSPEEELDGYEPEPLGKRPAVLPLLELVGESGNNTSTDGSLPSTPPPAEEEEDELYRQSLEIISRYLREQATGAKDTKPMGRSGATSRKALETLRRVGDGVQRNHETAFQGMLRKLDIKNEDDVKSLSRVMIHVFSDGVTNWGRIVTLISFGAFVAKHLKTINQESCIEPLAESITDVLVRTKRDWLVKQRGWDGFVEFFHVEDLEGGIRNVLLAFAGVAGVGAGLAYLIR", "assay": "not given", "assay_type": "functional", "conditions": "not given", "values": [
      {"smiles": "Cc1cc2nc(-c3ccc(SCC(=O)N4CCN(C(=O)c5ccco5)CC4)nc3)[nH]c2cc1C", "IC50": "3.63 µM (active)"},
      {"smiles": "O=C(O)CCCCCN1C(=O)/C(=C\\c2ccc(-c3ccc(Cl)cc3)o2)SC1=S", "IC50": "1.27 µM (active)"},
      {"smiles": "O=C(O)c1ccc(N/N=C/C2=C(N3CCOCC3)C(=C\\c3ccccc3)/CC2)cc1", "IC50": "4.44 µM (active)"}
    ]},
    {"biological_target": "Nonstructural protein 1 (Influenza A virus, UniProt Q194T2)", "sequence (Q194T2 whole entry)": "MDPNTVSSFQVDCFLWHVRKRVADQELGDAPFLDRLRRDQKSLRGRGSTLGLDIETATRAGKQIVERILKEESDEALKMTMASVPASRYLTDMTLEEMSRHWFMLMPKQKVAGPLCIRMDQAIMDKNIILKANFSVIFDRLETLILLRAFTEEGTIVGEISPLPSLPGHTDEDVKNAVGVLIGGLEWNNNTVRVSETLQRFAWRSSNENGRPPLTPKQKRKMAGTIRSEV", "assay": "not given", "assay_type": "functional, Influenza A virus (A/California/07/2009(H1N1))", "conditions": "not given", "values": [
      {"smiles": "COc1cc(OC)c2ccc(=O)oc2c1C(CCN1CCN(c2ccccc2)CC1)c1ccc(N(C)C)cc1", "note": "(stereo not given)", "IC50": "32.5 µM (active)"},
      {"smiles": "CCOC(=O)N1CCN(C2=C(NS(=O)(=O)c3ccc(C)cc3)C(=O)c3ccccc3C2=O)CC1", "IC50": "21.5 µM (active)"},
      {"smiles": "O=C(c1ccc2[nH]c3c(c2c1)CCCC3)N1CCN(c2ccc(F)cc2)CC1", "IC50": "> 100 µM (active)"},
      {"smiles": "CN1C(=O)/C(=C/c2cc(N=Nc3ccccc3)ccc2O)SC1=S", "IC50": "14.5 µM (active)"},
      {"smiles": "O=C(CSc1ccc(-c2ccccn2)nn1)NCc1ccc(Cl)cc1", "IC50": "41.9 µM (active)"},
      {"smiles": "COc1ccc(N2CCN(C(=O)CCC(=O)N3CCOc4ccc(Cl)cc43)CC2)cc1", "IC50": "> 100 µM (active)"}
    ]},
    {"tested_on": "not listed separately", "assay": "Luminescence Cell-Based Dose Retest to Confirm Inhibitors of Cancer Stem Cells. [Related pubchem assays (depositor defined):AID2717, AID2721]", "assay_type": "functional", "conditions": "Homo sapiens", "values": [
      {"smiles": "CN1C(=O)/C(=C/c2cc(N=Nc3ccccc3)ccc2O)SC1=S", "AC50": "0.644 µM (active)"}
    ]},
    {"tested_on": "not listed separately", "assay": "blockers of HIV-1 envelope-mediated cell-cell fusion – cherry-pick, dose response (AID 652057)", "assay_type": "functional, cell-based", "conditions": "not given", "values": [
      {"smiles": "O=C(c1ccc(Cl)s1)N1CCN(c2nc3ccccc3s2)CC1", "AC50": "55.7 µM (active)"},
      {"smiles": "C[C@H](CO)N1C[C@H](C)[C@H](CN(C)S(=O)(=O)c2cccs2)Oc2ccc(NC(=O)Cc3cn(C)c4ccccc34)cc2CC1=O", "AC50": "0.883 µM (active)"}
    ]},
    {"biological_target": "T1, Leucine aminopeptidase (Plasmodium falciparum 3D7, UniProt Q8IL11)", "T1 sequence (Q8IL11 whole entry)": "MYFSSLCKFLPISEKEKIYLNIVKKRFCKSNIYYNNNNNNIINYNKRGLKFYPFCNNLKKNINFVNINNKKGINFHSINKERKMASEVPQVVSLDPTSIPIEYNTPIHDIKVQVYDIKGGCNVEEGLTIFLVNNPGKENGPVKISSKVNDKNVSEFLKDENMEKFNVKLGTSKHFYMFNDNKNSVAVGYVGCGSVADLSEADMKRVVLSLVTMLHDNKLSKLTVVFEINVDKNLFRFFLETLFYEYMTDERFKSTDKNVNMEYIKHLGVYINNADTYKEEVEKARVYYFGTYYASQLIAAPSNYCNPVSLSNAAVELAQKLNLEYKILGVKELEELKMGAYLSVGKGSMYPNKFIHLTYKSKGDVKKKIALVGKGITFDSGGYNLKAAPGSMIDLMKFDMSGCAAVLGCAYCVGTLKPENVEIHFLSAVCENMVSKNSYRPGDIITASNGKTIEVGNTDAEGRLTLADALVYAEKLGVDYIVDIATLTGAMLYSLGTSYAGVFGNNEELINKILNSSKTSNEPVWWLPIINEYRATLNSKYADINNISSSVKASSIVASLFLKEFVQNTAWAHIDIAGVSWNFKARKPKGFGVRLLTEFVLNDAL", "assay": "P. falciparum M17LAP inhibitors, primary screen, biochemical, fluorogenic H-Leu-NHMec substrate, 1536-well (AID 1619)", "assay_type": "functional", "conditions": "not given", "values": [
      {"smiles": "Cc1cc(C(=O)COC(=O)c2ccc[nH]c2=O)c(C)n1C1CC1", "IC50": "13.3 µM (active)"},
      {"smiles": "CCOc1ccc(NC(=O)CSc2nnnn2CC(=O)O)cc1", "IC50": "6.69 µM (active)"},
      {"smiles": "O=C(Cn1nnc2ccccc2c1=O)Nc1ccc2c(c1)CCC2", "IC50": "1.51 µM (active)"},
      {"smiles": "COc1cccc(Nc2ncnc3[nH]cnc23)c1", "IC50": "95.1 µM (active)"}
    ]}
  ]
}
